Experimental data published in US8293781B2, “Indole derivatives having cPLA2 inhibiting activity and applications and production methods of the same” (Daiichi Sankyo Company, Limited, priority 2007, dated 2012).
Structures can show the parent of a compound that is named as a salt.

Experiments:
[1] = tested on: guinea pig antigen induced bronchial asthma model; assay: Guinea pig antigen induced bronchial asthma model: infiltrating cells in BALF; type: in vivo
Experimental: (§1) Hartley male guinea pigs (Kyudo Co., Ltd.) were sensitized by inhaling the aerosolized 1% OVA-containing physiological saline solution for consecutive 8 days. One week after the final sensitization, antigen antibody reaction was elicited by inhaling the aerosolized 2% OVA-containing physiological saline solution. 24 hours and 1 hour before antigen challenge, metyrapone (10 mg/kg, 1.0 ml/kg) was injected to the hind limb peripheral vein. 30 minutes before antigen challenge, pyrilamine maleate (10 mg/kg, 1.0 ml/kg) was administered intraperitoneally. The test compound (5 mg/kg and 20 mg/kg, 5.0 ml/kg) was administered once a day from the day after the final sensitization to the day before challenge. On the day of challenge, it was administered orally 1 hour before challenge and 8 hours after challenge. Note that the number of mice used in the test was made eight per group.
The number of cells in a bronchial alveolar lavage fluid was counted after measurement of the airway hyperreactivity. Each guinea pig was exsanguinated under anesthesia, its chest was opened, a cannular was inserted into the trachea, then physiological saline was injected into and sucked out from the lungs to recover the bronchial alveolar lavage fluid (BALF). The BALF was centrifugally separated, the obtained precipitate (pellets) was suspended in physiological saline and the total number of cells per 1 μl was calculated by an automatic blood cell counting system (Sysmex F-820). The total number of cells was calculated, then the sample was again centrifugally separated and the obtained pellets were hemolyzed, diluted, centrifuged, and dried, then stained by May-Greenwald's-Giemsa dye. Using a microscope, the ratios of the macrophages, eosinophil granulocytes, neutrophils, and lymphocytes to the total blood cell count (total number of cells) were found and the ratios used to calculate the numbers of cells per μl. The inhibiting rate was found as a percent (%) of the value of the number of cells of the control vehicle administered group minus the number of cells of each compound administered group with respect to the value of the number of cells of the vehicle administered group minus the number of cells of the negative control saline inhalation group.

[2] = tested on: guinea pig antigen induced bronchial asthma model; assay: Guinea pig antigen induced bronchial asthma model: airway resistance (IAR, LAR); type: in vivo; conditions: for IAR suppression rate (airway resistance): immediate asthmatic response, 1 minute after challenge; for LAR suppression rate (airway resistance): late asthmatic response, AUC 4 to 8 hours
Experimental: as §1
The airway resistance (sRaw) was measured using a total respiratory function analysis system (Pulmos-I, made by M.I.P.S.) before antigen challenge, 1 minute after finishing the antigen challenge, and 2, 4, 5, 6, 7, 8, and 22 to 24 hours after antigen challenge. […] The late asthmatic response (LAR) was evaluated by calculating the AUC from the rate of change 4 to 8 hours after inducement based on the measurement values and finding the value obtained by subtratcting the AUC of each compound administered group from the AUC of the vehicle administered group with the control inhibition rate as a percent (%) with respect to the value of the vehicle administered group. The rates of suppression of typical compounds with respect to the increases in airway resistances in immediate asthmatic response (IAR) and late asthmatic response (LAR) are shown in Table 8.

[3] = tested on: guinea pig antigen induced bronchial asthma model; assay: Guinea pig antigen induced bronchial asthma model: airway hyperreactivity to acetyl choline; type: in vivo; conditions: 22 to 24 hours after inducement
Experimental: as §1
The airway hyperreactivity was measured 22 to 24 hours after inducement. Physiological saline solution and acetyl choline in 0.0625, 0.125, 0.25, 0.5, 1, and 2 mg/ml amounts in physiological saline solutions were successively nebulized and made to be inhaled by guinea pigs 1 minute at a time each, then the sRaw was measured by a total respiratory function analysis system (Pulmos-I, made by M.I.P.S.) The results of evaluation of typical compounds are shown in Table 9 for different acetyl choline concentrations (PC100Ach, mg/ml) inducing 100% airway resistance.

[4] = tested on: rats; assay: Repeated oral administration to rats once a day over two weeks (toxicity); type: in vivo, rat; conditions: once a day over two weeks repeatedly orally
Experimental: Further, the present invention compound (I) or its salts or their solvates have low toxicity. In experiments administering the compound of Example 231 of the present invention to rats once a day over two weeks repeatedly orally, the nontoxic amount was 180 mg/kg/day.

Row | SMILES | Inhibitory rate of infiltrating cells in BALF: Eosinophils ([1]; 5 mg/kg oral) [%] | Inhibitory rate of infiltrating cells in BALF: Lymphocytes ([1]; 5 mg/kg oral) [%] | Inhibitory rate of infiltrating cells in BALF: Macrophages ([1]; 5 mg/kg oral) [%] | Inhibitory rate of infiltrating cells in BALF: Neutrophils ([1]; 5 mg/kg oral) [%] | Inhibitory rate of infiltrating cells in BALF: Total number of cells ([1]; 5 mg/kg oral) [%] | Inhibitory rate of infiltrating cells in BALF: Eosinophils ([1]; 20 mg/kg oral) [%] | Inhibitory rate of infiltrating cells in BALF: Lymphocytes ([1]; 20 mg/kg oral) [%] | Inhibitory rate of infiltrating cells in BALF: Macrophages ([1]; 20 mg/kg oral) [%] | Inhibitory rate of infiltrating cells in BALF: Neutrophils ([1]; 20 mg/kg oral) [%] | Inhibitory rate of infiltrating cells in BALF: Total number of cells ([1]; 20 mg/kg oral) [%] | IAR suppression rate (airway resistance) ([2]; 5 mg/kg oral) [%] | LAR suppression rate (airway resistance) ([2]; 5 mg/kg oral) [%] | IAR suppression rate (airway resistance) ([2]; 20 mg/kg oral) [%] | LAR suppression rate (airway resistance) ([2]; 20 mg/kg oral) [%] | PC100ACh (acetyl choline concentration inducing 100% airway resistance) ([3]; 5 mg/kg oral) [mg/mL] | PC100ACh (acetyl choline concentration inducing 100% airway resistance) ([3]; 20 mg/kg oral) [mg/mL] | nontoxic amount [4] [mg/kg/day]
1 | O=C(O)CCc1ccc2c(c1)c(CCc1ccccc1)cn2-c1ccc(OC(F)F)cc1 [Example 190, 3-{1-[4-(difluoromethoxy)phenyl]-3-(2-phenylethyl)-1H-indol-5-yl}propanoic acid 2-amino-2-(hydroxymethyl)propane-1,3-diol salt (1:1)] | 41 | 30 | 66 | 0 | 33 | 76 | 42 | 76 | 37 | 62 | 2 | 46 | 2 | 42 | 0.57 | 0.50 | –
2 | O=C(O)CCc1ccc2c(c1)c(CCc1ccccc1)cn2-c1ccc(OCCO)cc1 [Example 229, 3-{1-[4-(2-hydroxyethoxy)phenyl]-3-(2-phenylethyl)-1H-indol-5-yl}propanoic acid 2-amino-2-(hydroxymethyl)propane-1,3-diol salt (1:1)] | 51 | 11 | 58 | 0 | 30 | 46 | 12 | 46 | 16 | 35 | 15 | 22 | 33 | 37 | 0.47 | 0.74 | –
3 | O=C(O)CCc1ccc2c(c1)c(CCc1ccccc1)cn2-c1ccc(Oc2ccccc2)cc1 [Example 231, 3-[1-(4-phenoxyphenyl)-3-(2-phenylethyl)-1H-indol-5-yl]propanoic acid 2-amino-2-(hydroxymethyl)propane-1,3-diol salt (1:1)] | 58 | 45 | 80 | 38 | 58 | 69 | 55 | 85 | 64 | 72 | 21 | 45 | 59 | 78 | 1.02 | 1.09 | 180
